For assay [1], the target named is GST-tagged K-Ras mutant / His-tagged hSOS1 (Homo sapiens, UniProt P01116). Put plainly: HTRF assay, K-Ras mutant / SOS1 interaction. In kind it is binding. Particulars: compound nos. 401-703; read-out: IC50 against mutant Kras. The essentials:
(§1)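 HTRF read-out (ex 337, em 620 and 665 nm) of Ras–SOS1 equilibrium binding: Eu-anti-GST on GST-K-Ras, XL665-anti-6His on His-hSOS1. Incubation about 10 min or longer; IC50 fitted from emission ratio, compounds in duplicate at 10 μM down to 0.01 μM.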
A general note: In TR-FRET formats the signal depends on donor and acceptor labels being close together.

The target of a further assay is T1, wildtype Kras / hSOS1 (Homo sapiens, UniProt P01116).
T1 construct: made in house; host or cells: E. coli BL21 (DE3)
T1 sequence (P01116 1-188 isoform P01116-2): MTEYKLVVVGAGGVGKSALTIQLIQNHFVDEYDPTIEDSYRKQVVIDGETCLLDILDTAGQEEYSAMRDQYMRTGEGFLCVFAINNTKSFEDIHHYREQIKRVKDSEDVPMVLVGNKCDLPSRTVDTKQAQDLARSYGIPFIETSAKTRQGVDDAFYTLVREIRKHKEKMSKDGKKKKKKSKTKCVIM
Put plainly: HTRF assay, wildtype Kras / SOS1 interaction. The class given is binding. Particulars: compound nos. 401-703; read-out: IC50 against wildtype Kras. The essentials:
as §1

The structures appear in SMILES notation.

One may read the IC50 as the midpoint of a concentration-inhibition curve.

Sequence of GST-tagged K-Ras mutant / His-tagged hSOS1 (P01116 whole entry G12D, form open): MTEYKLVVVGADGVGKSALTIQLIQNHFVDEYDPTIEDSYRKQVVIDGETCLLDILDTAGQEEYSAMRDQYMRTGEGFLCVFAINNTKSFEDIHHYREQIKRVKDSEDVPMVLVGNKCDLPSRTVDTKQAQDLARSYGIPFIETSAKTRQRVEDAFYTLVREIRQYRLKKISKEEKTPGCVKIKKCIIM

With `Nc1nc2c(-c3c(Cl)cc4c(N5CCCCCCC5)nc(OC[C@@]56CCCN5C[C@H](F)C6)nc4c3F)ccc(F)c2s1` [Compound 667, 4-(4-(azocan-1-yl)-6-chloro-8-fluoro-2-(((2R,7aS)-2-fluorotetrahydro-1H-pyrrol-izin-7a(5H)-yl)methoxy)-quinazolin-7-yl)-7-fluoro-benzo[d]thiazol-2-amine], the IC50 was under 500 nM in assay [1] and over 500 nM at wildtype Kras / hSOS1.

For the compound `Oc1cc(-c2c(F)cc3c(N4CC5CCC(C4)N5)nc(OCC45CCCN4CCC5)nc3c2F)c2ccccc2c1` [Compound 669, 4-(4-(3,8-diazabicyclo-[3.2.1]octan-3-yl)-6,8-difluoro-2-((tetrahydro-1H-pyrrolizin-7a(5H)-yl)methoxy)quinazolin-7-yl)naphthalen-2-ol], the IC50 in assay [1] is under 500 nM; on wildtype Kras / hSOS1 it was over 500 nM.

Take `Nc1cc(-c2c(Cl)cc3c(N4CCCCCC4)nc(OCC45CCCN4CCC5)nc3c2F)ccc1F` [Compound 670, 5-(4-(azepan-1-yl)-6-chloro-8-fluoro-2-((tetrahydro-1H-pyrrolizin-7a(5H)-yl)meth-oxy)quinazolin-7-yl)-2-fluoroaniline]: the half-inhibitory concentration (IC50) (in assay [1]; at wildtype Kras / hSOS1) was over 500 nM each time.

As for `Fc1c(-c2ccc(F)c3[nH]nc(I)c23)c(Cl)cc2c(N3CC4CCC(C3)N4)nc(OC[C@@]34CCCN3C[C@H](F)C4)nc12` [Compound 671, 4-(3,8-diazabicyclo[3.2.1]-octan-3-yl)-6-chloro-8-fluoro-7-(7-fluoro-3-iodo-1H-indazol-4-yl)-2-(((2R,7aS)-2-fluorotetra-hydro-1H-pyrrolizin-7a(5H)-yl)methoxy)quinazoline], the IC50 (in assay [1]; on wildtype Kras / hSOS1) was over 500 nM throughout.

As to `CN1CCC[C@H]1COc1nc(N2CCCCC(N)C2)c2cc(Cl)c(-c3cccc4sc(N)nc34)c(F)c2n1` (stereo partly drawn) [Compound 672, 4-(4-(3-aminoazepan-1-yl)-6-chloro-8-fluoro-2-(((S)-1-methylpyrrolidin-2-yl)meth-oxy)quinazolin-7-yl)ben-zo[d]thiazol-2-amine], the IC50 in assay [1] is under 500 nM; at wildtype Kras / hSOS1 it was over 500 nM.

Regarding `N#Cc1c(N)sc2c(F)ccc(-c3c(Cl)cc4c(N5CC6CCC(C5)N6)nc(OC[C@@]56CCCN5C[C@H](F)C6)nc4c3F)c12` [Compound 673, 4-(4-(3,8-diazabicyclo-[3.2.1]octan-3-yl)-6-chloro-8-fluoro-2-(((2R,7aS)-2-fluorotetrahydro-1H-pyrrol-izin-7a(5H)-yl)methoxy)-quinazolin-7-yl)-2-amino-7-fluorobenzo[b]thiophene-3-carbonitrile], the IC50 in assay [1] is under 500 nM; at wildtype Kras / hSOS1, over 500 nM.

Consider `N#Cc1csc2cccc(-c3c(Cl)cc4c(N5CC6CCC(C5)N6)nc(OC[C@@]56CCCN5C[C@H](F)C6)nc4c3F)c12` [Compound 674, 4-(4-(3,8-diazabicyclo-[3.2.1]-octan-3-yl)-6-chloro-8-fluoro-2-(((2R,7aS)-2-fluorotetrahydro-1H-pyrrol-izin-7a(5H)-yl)methoxy)-quinazolin-7-yl)benzo[b]-thiophene-3-carbonitrile], for which the IC50 in assay [1] is under 500 nM; on wildtype Kras / hSOS1, over 500 nM.

Turning to `Nc1nc2c(-c3c(Cl)cc4c(N5CCCCCC5)nc(OCC5(CN6CCCC6)CC5)nc4c3F)ccc(F)c2s1` [Compound 677, 4-(4-(azepan-1-yl)-6-chloro-8-fluoro-2-((1-(pyrrolidin-1-ylmethyl)cyclopropyl)meth-oxy)quinazolin-7-yl)-7-fluorobenzo[d]thiazol-2-amine], the values for the IC50 (in assay [1]; at wildtype Kras / hSOS1) were under 500 nM and over 500 nM, respectively.

With `Cc1ccc2cnn(C#N)c2c1-c1c(Cl)cc2c(N3CC4CCC(C3)N4)nc(OC[C@@]34CCCN3C[C@H](F)C4)nc2c1F` [Compound 678, 7-(4-(3,8-diazabicyclo-[3.2.1]octan-3-yl)-6-chloro-8-fluoro-2-(((2R,7aS)-2-fluorotetrahydro-1H-pyrrol-izin-7a(5H)-yl)methoxy)-quinazolin-7-yl)-6-methyl-1H-indazole-1-carbonitrile], the IC50 (in assay [1]; at wildtype Kras / hSOS1) was over 500 nM each time.

`N#Cc1c(N)sc2c(F)ccc(-c3c(Cl)cc4c(N5C[C@H]6CC[C@@H](C5)N6C5CCOCC5)nc(OC[C@@]56CCCN5C[C@H](F)C6)nc4c3F)c12` [Compound 679, 2-amino-4-(6-chloro-8-fluoro-2-(((2R,7aS)-2-fluorotetrahydro-1H-pyrrol-izin-7a(5H)-yl)methoxy)-4-((1R,5S)-8-(tetrahydro-2H-pyran-4-yl)-3,8-diaza-bicyclo[3.2.1]octan-3-yl)-quinazolin-7-yl)-7-fluoro-benzo[b]thiophene-3-carbonitrile]: the values for the IC50 (in assay [1]; at wildtype Kras / hSOS1) were under 500 nM and over 500 nM, respectively.

Turning to `Nc1nc2c(-c3c(F)cc4c(N5CC6CCC(C5)N6)nc(OCC56CCCN5CCC6)nc4c3F)ccc(F)c2s1` [Compound 680, 4-(4-(3,8-diazabicyclo-[3.2.1]octan-3-yl)-6,8-difluoro-2-((tetrahydro-1H-pyrrolizin-7a(5H)-yl)methoxy)quinazolin-7-yl)-7-fluorobenzo[d]thiazol-2-amine], the IC50 in assay [1] is under 500 nM; at wildtype Kras / hSOS1, over 500 nM.

As to `CN(C)CC1CN(c2nc(OCC34CCCN3CCC4)nc3c(F)c(-c4ccc(F)c5sc(N)nc45)c(Cl)cc23)CCCO1` (stereo not drawn) [Compound 681, 4-(6-chloro-4-(2-((dimethyl-amino)methyl)-1,4-oxaze-pan-4-yl)-8-fluoro-2-((tetra-hydro-1H-pyrrolizin-7a(5H)-yl)methoxy)quinazolin-7-yl)-7-fluorobenzo[d]thiazol-2-amine], the values for the IC50 (in assay [1]; at wildtype Kras / hSOS1) were under 500 nM and over 500 nM, respectively.

As to `CC(C)CCN1[C@@H]2CC[C@H]1CN(c1nc(OCC34CCCN3CCC4)nc3c(F)c(-c4ccc(F)c5sc(N)nc45)c(Cl)cc13)C2` [Compound 682, 4-(6-chloro-8-fluoro-4-((1R,5S)-8-isopentyl-3,8-diazabicyclo[3.2.1]octan-3-yl)-2-((tetrahydro-1H-pyr-rolizin-7a(5H)-yl)methoxy)-quinazolin-7-yl)-7-fluoro-benzo[d]thiazol-2-amine], the IC50 in assay [1] is under 500 nM; at wildtype Kras / hSOS1 it was over 500 nM.

In the case of `Nc1c(-c2ccccc2)cccc1-c1c(Cl)cc2c(N3CC4CCC(C3)N4)nc(OCC34CCCN3CCC4)nc2c1F` [Compound 683, 3-(4-(3,8-diazabicyclo-[3.2.1]-octan-3-yl)-6-chloro-8-fluoro-2-((tetrahydro-1H-pyrrolizin-7a(5H)-yl)meth-oxy)quinazolin-7-yl)-[1,1′-biphenyl]-2-amine], the IC50 (in assay [1]; on wildtype Kras / hSOS1) was over 500 nM each time.

In the case of `Nc1nc2c(-c3c(Cl)cc4c(N5CCC6CCC(C5)N6)nc(OC[C@@]56CCCN5C[C@H](F)C6)nc4c3F)ccc(F)c2s1` (stereo partly drawn) [Compound 684, 4-(4-(3,9-diazabicyclo-[4.2.1]nonan-3-yl)-6-chloro-8-fluoro-2-(((2R,7aS)-2-fluorotetrahydro-1H-pyrrol-izin-7a(5H)-yl)methoxy)-quinazolin-7-yl)-7-fluoro-benzo[d]thiazol-2-amine], the IC50 in assay [1] is under 500 nM; at wildtype Kras / hSOS1 it was over 500 nM.

For the compound `Nc1nc2c(-c3c(Cl)cc4c(N5CC6CCCC5CN6)nc(OC[C@@]56CCCN5C[C@H](F)C6)nc4c3F)ccc(F)c2s1` (stereo partly drawn) [Compound 685, 4-(4-(6,8-diazabicyclo-[3.2.2]nonan-6-yl)-6-chloro-8-fluoro-2-(((2R,7aS)-2-fluorotetrahydro-1H-pyrrol-izin-7a(5H)-yl)methoxy)-quinazolin-7-yl)-7-fluoro-benzo[d]thiazol-2-amine], the IC50 in assay [1] was under 500 nM; at wildtype Kras / hSOS1 it was over 500 nM.

Consider `Nc1nc2c(-c3c(Cl)cc4c(N5CC6CC5CCN6)nc(OC[C@@]56CCCN5C[C@H](F)C6)nc4c3F)ccc(F)c2s1` (stereo partly drawn) [Compound 686, 4-(4-(2,6-diazabicyclo-[3.2.1]octan-6-yl)-6-chloro-8-fluoro-2-(((2R,7aS)-2-fluorotetrahydro-1H-pyrrol-izin-7a(5H)-yl)methoxy)-quinazolin-7-yl)-7-fluoro-benzo[d]thiazol-2-amine], for which the IC50 in assay [1] was under 500 nM; at wildtype Kras / hSOS1, over 500 nM.

`Cc1ccnc(C(C)C)c1-n1c(=O)nc(N2CC3CCC(C2)N3)c2cc(F)c(-c3c(O)cccc3F)nc21` [Compound 687, 4-(3,8-diazabicyclo[3.2.1]-octan-3-yl)-6-fluoro-7-(2-fluoro-6-hydroxyphenyl)-1-(2-isopropyl-4-methylpyr-idin-3-yl)pyrido[2,3-d]pyr-imidin-2(1H)-one]: the IC50 (in assay [1]; at wildtype Kras / hSOS1) was over 500 nM in each case.

As for `Fc1ccc(-c2c(Cl)cc3c(N4CC5CCC(C4)N5)nc(OC[C@@]45CCCN4C[C@H](F)C5)nc3c2F)c2c1CCCC2` [Compound 689, 4-(3,8-diazabicyclo[3.2.1]-octan-3-yl)-6-chloro-8-fluoro-7-(4-fluoro-5,6,7,8-tetrahydronaphthalen-1-yl)-2-(((2R,7aS)-2-fluorotetra-hydro-1H-pyrrolizin-7a(5H)-yl)methoxy)quinazoline], the IC50 (in assay [1]; at wildtype Kras / hSOS1) was over 500 nM each time.

Consider `Nc1nc2c(-c3c(Cl)cc4c(N5CC6CCC(CC6)C5)nc(OC[C@@]56CCCN5C[C@H](F)C6)nc4c3F)ccc(F)c2s1` [Compound 690, 4-(4-(3-azabicyclo[3.2.2]-nonan-3-yl)-6-chloro-8-fluoro-2-(((2R,7aS)-2-fluorotetrahydro-1H-pyrrol-izin-7a(5H)-yl)methoxy)-quinazolin-7-yl)-7-fluoro-benzo[d]thiazol-2-amine], for which the values for the IC50 (in assay [1]; on wildtype Kras / hSOS1) were under 500 nM and over 500 nM, respectively.

As to `N#Cc1ccc2ccccc2c1-c1ccc2c(N3CC4CCC(C3)N4)nc(OC[C@@]34CCCN3C[C@H](F)C4)nc2c1F` [Compound 691, 1-(4-(3,8-diazabicyclo-[3.2.1]octan-3-yl)-8-fluoro-2-(((2R,7aS)-2-fluorotetra-hydro-1H-pyrrolizin-7a(5H)-yl)methoxy)quinazolin-7-yl)-2-naphthonitrile], the IC50 (in assay [1]; at wildtype Kras / hSOS1) was over 500 nM in each case.

The record behind these values is US20240254129A1, “HETEROCYCLIC COMPOUNDS AND USES THEREOF” (Kumquat Biosciences Inc., priority 2021, published 2024).
